Data: PMC7203344, “Sirtuin 1 Inhibiting Thiocyanates (S1th)—A New Class of Isotype Selective Inhibitors of NAD^+ Dependent Lysine Deacetylases” (Frontiers in Oncology, 2020)

What was measured:
deubiquitinases (DUBs) = experiment: DUB labeling on HEK293T cell lysate with Rhodamine-Ub-PA probe; type: biochemical, human; design: key to Qualitative pan-DUB inhibition @ 10 μM / Qualitative pan-DUB inhibition @ 50 μM: n.i.: no inhibition (<10%); +: low inhibition; +++: full inhibition; settings: for Qualitative pan-DUB inhibition @ 10 μM / Qualitative pan-DUB inhibition @ 50 μM: HEK293T cell lysate
Description: Pan-inhibition of deubiquitinases (DUBs) was tested using HEK293T cell lysate (human embryonic kidney cells, human). Cells were harvested and resuspended in HR buffer (50 mM Tris, 5 mM MgCl2, 250 mM sucrose, 1 mM DTT, pH 7.4). Cell lysis was achieved by sonication (Bioruptor, Diagenode, high intensity for 10 min with an ON/OFF cycle of 30 s) at 4°C and the cell debris was removed by centrifugation at 13,500 rpm for 15 min. Cell lysate protein concentration was determined with a NanoDrop spectrophotometer (NanoDrop One™ Spektrophotometer, Thermo Fisher, MA, USA) by measuring absorbance at 280 nm. Nineteen microliter of the lysate (2 μg/μL) were incubated with inhibitors dissolved in DMSO at various concentrations or DMSO as a control for 30 min at 37°C. Afterwards 1 μL of Rhodamine-Ub-PA (1 μM final assay concentration) was added to each sample, followed by further incubation for 40 min at 37°C ([61]). The labeling reaction was stopped by addition of NuPAGE 4× LDS sample buffer (Invitrogen Life Technologies, Carlsbad, CA, USA) containing β-mercaptoethanol and boiling for 7 min at 95°C. The proteins of the samples as well as protein marker (PageRuler™ Pre-stained Protein Ladder, 10–250 kDa, Thermo Fisher, MA, USA) were resolved by a 4–12% SDS-PAGE using the NuPAGE system with MOPS running buffer (Invitrogen Life Technologies, Carlsbad, CA, USA). The resulting gel was scanned with a Typhoon imager (GE Healthcare Life Sciences, USA) to visualize the Rhodamine-Ub-PA probe and Cy5 (marker). Subsequently the gel was stained with InstantBlue™ Protein Stain (Expedeon, UK) and scanned on a Amersham scanner (Amersham Typhoon gel and blot imaging system, GE Healthcare Life Sciences, USA).

HeLa cells [1] = experiment: Colony forming assay with HeLa cells; type: cell-based, human; settings: 7–10 days; concentrations as in proliferation assay
Description: For colony assays, 50 cells per well were seeded in 6-well plates and grown in the same conditions with the same drug concentrations as for the proliferation assays. In this case, the growth media containing the drugs was replaced every 48 h. After 7–10 days, when isolated colonies were formed, wells were washed with PBS, and cells were fixed with cold methanol for 5 min at RT. Cells were stained with crystal violet for 10 min at RT and washed with H2O. Images were acquired using iBright (Thermo Fisher Scientific, MA, USA). For quantification, cells of each well were resuspended in 10% glacial acetic acid to dissolve crystal violet whose levels were monitored by measuring absorbance at 590 nm. The experiment was performed in duplicates.

HeLa cells [2] = experiment: Cell proliferation assay with HeLa cells; type: cell-based, human; settings: EX-527 20 μM, S1th 13 12 μM, S1th 12 20 μM, S1th 10 30 μM; up to 120 h
Description: 1.5 × 10^4 cells/well were seeded in 24-well plates and grown in DMEM 10% in presence of DMSO, 20 μM EX-527, 12 μM S1th 13, 20 μM S1th 12, or 30 μM S1th 10. The growth media containing the drugs was replaced every 48 h. Cells were collected and counted at the indicated times starting 24 h after seeding (0, 24, 48, 72, 96, and 120 h). The experiment was performed twice in duplicates.

Compound | Qualitative pan-DUB inhibition @ 10 μM (deubiquitinases (DUBs)) | Qualitative pan-DUB inhibition @ 50 μM (deubiquitinases (DUBs)) | inhibition of DUBs (in words) (deubiquitinases (DUBs); HEK cell lysate, Rhodamine-Ub-PA probe) | colony forming of HeLa cells (HeLa cells [1]) | cell proliferation of HeLa cells (HeLa cells [2])
N#CSc1cc(SC#N)c(N)nc1N [PR-619, reference compound] | + | +++ | inhibits all DUBs tested in a concentration dependent manner |  | 
N#CSc1cccc(NC(=O)[C@H]2CC=CC[C@H]2C(=O)O)c1 [S1th 10] | n.i. (no inhibition (<10%)) | n.i. (no inhibition (<10%)) |  | only mild effects | significantly decreased cell proliferation
CCCCNC(=O)Nc1cccc(SC#N)c1 [S1th 11] | n.i. (no inhibition (<10%)) | n.i. (no inhibition (<10%)) |  |  | 
COc1ccc(SC#N)cc1OCC(=O)N(CCC#N)CCC#N [S1th 12] | n.i. (no inhibition (<10%)) | n.i. (no inhibition (<10%)) |  | only mild effects | only showed a mild effect
N#CSc1cccc(NS(=O)(=O)c2ccc3c(c2)OCCO3)c1 [S1th 13] | n.i. (no inhibition (<10%)) | n.i. (no inhibition (<10%)) |  | almost as potent as EX-527 | significantly decreased cell proliferation
